ChEMBL document CHEMBL4420076, “Amylin and calcitonin receptor agonist” (2017)
Numbered stars: 1 amine (or outer) side, 2 acyl side, 3 side chain; on linkers, the order of the positions; unused ones are H or OH. Peptide text beside a SMILES is read from it. * marks the point of attachment. C18 diacid = O=C(O)CCCCCCCCCCCCCCCCC(=O)*; γGlu = O=C(O)[C@H](CCC(=O)[*:2])N[*:1]; C14 diacid = O=C(O)CCCCCCCCCCCCC(=O)*; AEEA = NCCOCCOCC(=O)O

Columns and labels:
[1] = Solubility in 100 mM glycylglycine buffer at pH 4.0 incubated for 18 hrs by UPLC analysis; assay type: physicochemical
[2] = Solubility in 100 mM glycylglycine buffer at pH 3.0 incubated for 18 hrs by UPLC analysis; assay type: physicochemical
[3] = Solubility in 100 mM bistrispropane buffer at pH 6.5 incubated for 18 hrs by UPLC analysis; assay type: physicochemical
[4] = Solubility in 100 mM glycylglycine buffer at pH 5.0 incubated for 18 hrs by UPLC analysis; assay type: physicochemical
[5] = Solubility in 100 mM bistrispropane buffer at pH 6.0 incubated for 18 hrs by UPLC analysis; assay type: physicochemical
Rattus norvegicus [6] = assay: Reduction in food intake in Sprague-Dawley rat at 3 nmol/kg measured 24 to 48 hrs post dose relative to control; assay type: functional; design: scale not given: the % may be the effect or the level left
Rattus norvegicus [7] = assay: Reduction in food intake in Sprague-Dawley rat at 3 nmol/kg measured 0 to 24 hrs post dose relative to control; assay type: functional; design: scale not given: the % may be the effect or the level left
[8] = Solubility in 100 mM bistrispropane buffer at pH 7.5 incubated for 18 hrs by UPLC analysis; assay type: physicochemical
Calcitonin receptor = target: T1, Calcitonin receptor (Homo sapiens, UniProt P30988); assay: Agonist activity at human calcitonin receptor expressed in BHK570 cells assessed as increase in intracellular cAMP concentration incubated for 3 hrs in absence of albumin by CRE luciferase reporter gene assay; assay type: functional, cell-based
T1 sequence (P30988 whole entry): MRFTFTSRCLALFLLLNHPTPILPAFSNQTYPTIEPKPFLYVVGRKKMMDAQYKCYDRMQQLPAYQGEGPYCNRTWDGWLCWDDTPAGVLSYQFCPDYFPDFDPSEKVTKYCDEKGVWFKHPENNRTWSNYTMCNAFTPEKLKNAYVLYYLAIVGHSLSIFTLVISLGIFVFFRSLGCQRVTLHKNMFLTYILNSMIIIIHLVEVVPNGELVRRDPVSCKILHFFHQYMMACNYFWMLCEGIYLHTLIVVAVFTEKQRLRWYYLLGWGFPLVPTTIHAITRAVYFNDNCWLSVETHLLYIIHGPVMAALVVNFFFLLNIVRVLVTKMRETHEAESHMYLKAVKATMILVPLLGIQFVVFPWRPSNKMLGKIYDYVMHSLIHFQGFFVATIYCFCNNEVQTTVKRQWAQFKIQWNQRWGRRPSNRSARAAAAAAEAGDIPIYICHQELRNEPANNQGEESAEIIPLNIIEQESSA

[9] = target: T2, Amylin receptor AMY3; CALCR/RAMP3 (Homo sapiens, UniProt O60896+P30988); assay: Agonist activity at human amylin receptor expressed in BHK570 cells co-expressing RAMP3 assessed as increase in intracellular cAMP concentration incubated for 3 hrs in absence of albumin by CRE luciferase reporter gene assay; assay type: functional, cell-based
T2 sequence (P30988 whole entry): T1 sequence (P30988 whole entry)
T2 sequence (O60896 whole entry): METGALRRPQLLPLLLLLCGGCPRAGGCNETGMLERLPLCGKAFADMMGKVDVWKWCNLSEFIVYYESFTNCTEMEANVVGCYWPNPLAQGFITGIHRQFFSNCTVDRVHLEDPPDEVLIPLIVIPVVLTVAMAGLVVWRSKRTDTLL

[10] = Solubility in 100 mM bistrispropane buffer at pH 7.0 incubated for 18 hrs by UPLC analysis; assay type: physicochemical
[11] = target: T2, Amylin receptor AMY3; CALCR/RAMP3; assay: Displacement of [125I]-labeled rat amylin from human amylin receptor expressed in BHK tkts13 whole cells co-expressing RAMP3 incubated for 60 mins by scintillation proximity assay; assay type: cell-based
[12] = Solubility in 100 mM bistrispropane buffer at pH 8.0 incubated for 18 hrs by UPLC analysis; assay type: physicochemical

solubility at 18 h [1] [µM]	solubility at 18 h [2] [µM]	solubility at 18 h [3] [µM]	solubility at 18 h [4] [µM]	solubility at 18 h [5] [µM]	solubility at 18 h [8] [µM]	EC50 (Calcitonin receptor) [nM]	EC50 [9] [nM]	solubility at 18 h [10] [µM]	IC50 [11] [nM]	solubility at 18 h [12] [µM]	Compound	Activity (Rattus norvegicus [6]) [%]	Activity (Rattus norvegicus [7]) [%]
≥ 200	≥ 200	≥ 200	≥ 200	≥ 200	≥ 200	0.007	0.027	≥ 200	8.38	≥ 200	CC(C)C[C@H](NC(=O)[C@H](C)NC(=O)[C@H](C)NC(=O)[C@@H](NC(=O)[C@H](CO)NC(=O)[C@H](CC(C)C)NC(=O)[C@H](CCC(=O)O)NC(=O)[C@H](CO)NC(=O)[C@H](C)NC(=O)[C@H](CCC(=O)O)NC(=O)COCCOCCNC(=O)COCCOCCNC(=O)COCCOCCNC(=O)COCCOCCNC(=O)CC[C@H](NC(=O)CC[C@H](NC(=O)CCCCCCCCCCCCC(=O)O)C(=O)O)C(=O)O)[C@@H](C)O)C(=O)NCC(=O)N[C@@H](CCCNC(=N)N)C(=O)N[C@@H](CC(C)C)C(=O)N[C@@H](CO)C(=O)N[C@@H](C)C(=O)N[C@@H](CCC(=O)O)C(=O)N[C@@H](CC(C)C)C(=O)N[C@@H](Cc1cnc[nH]1)C(=O)N[C@@H](CCC(=O)O)C(=O)N[C@@H](CC(C)C)C(=O)N[C@@H](C)C(=O)N[C@H](C(=O)N[C@@H](CC(C)C)C(=O)N1CCC[C@H]1C(=O)N[C@@H](CCCNC(=N)N)C(=O)N[C@H](C(=O)N[C@@H](CCC(=O)O)C(=O)N[C@H](C(=O)NCC(=O)N1CCC[C@H]1C(=O)N[C@@H](CCC(=O)O)C(=O)N[C@@H](CO)C(=O)N1CCC[C@H]1C(N)=O)[C@@H](C)O)[C@@H](C)O)[C@@H](C)O ({C14 diacid-γGlu-γGlu-AEEA-AEEA-AEEA-AEEA}-EASELSTAALGRLSAELHELATLPRTETGPESP-NH2)	-3	3
≥ 200	≥ 200	≥ 200	≥ 200	≥ 200	≥ 200	0.002	0.006	≥ 200	1.19	≥ 200	CC(C)C[C@H](NC(=O)[C@H](C)NC(=O)[C@H](C)NC(=O)[C@@H](NC(=O)[C@H](CO)NC(=O)[C@H](CC(C)C)NC(=O)[C@H](CCC(=O)O)NC(=O)[C@H](CO)NC(=O)[C@H](C)NC(=O)[C@H](CCC(=O)O)NC(=O)CCCCCCCCCCCCC(=O)O)[C@@H](C)O)C(=O)NCC(=O)N[C@@H](CCCNC(=N)N)C(=O)N[C@@H](CC(C)C)C(=O)N[C@@H](CO)C(=O)N[C@@H](C)C(=O)N[C@@H](CCC(=O)O)C(=O)N[C@@H](CC(C)C)C(=O)N[C@@H](Cc1cnc[nH]1)C(=O)N[C@@H](CCC(=O)O)C(=O)N[C@@H](CC(C)C)C(=O)N[C@@H](C)C(=O)N[C@H](C(=O)N[C@@H](CC(C)C)C(=O)N1CCC[C@H]1C(=O)N[C@@H](CCCNC(=N)N)C(=O)N[C@H](C(=O)N[C@@H](CCC(=O)O)C(=O)N[C@H](C(=O)NCC(=O)N1CCC[C@H]1C(=O)N[C@@H](CCC(=O)O)C(=O)N[C@@H](CO)C(=O)N1CCC[C@H]1C(N)=O)[C@@H](C)O)[C@@H](C)O)[C@@H](C)O ({C14 diacid}-EASELSTAALGRLSAELHELATLPRTETGPESP-NH2)	-4	13.5
≥ 200	≥ 200	≥ 200	≥ 200	≥ 200	≥ 200	0.003	0.004	≥ 200	0.329	≥ 200	CC(C)C[C@H](NC(=O)[C@H](C)NC(=O)[C@H](C)NC(=O)[C@@H](NC(=O)[C@H](CO)NC(=O)[C@H](CC(C)C)NC(=O)[C@H](CCC(=O)O)NC(=O)[C@H](CO)NC(=O)[C@H](C)NC(=O)[C@H](CCC(=O)O)NC(=O)CCCCCCCCCCCCCCCCC(=O)O)[C@@H](C)O)C(=O)NCC(=O)N[C@@H](CCCNC(=N)N)C(=O)N[C@@H](CC(C)C)C(=O)N[C@@H](CO)C(=O)N[C@@H](C)C(=O)N[C@@H](CCC(=O)O)C(=O)N[C@@H](CC(C)C)C(=O)N[C@@H](C)C(=O)N[C@@H](CCC(=O)O)C(=O)N[C@@H](CC(C)C)C(=O)N[C@@H](C)C(=O)N[C@H](C(=O)N[C@@H](CC(C)C)C(=O)N1CCC[C@H]1C(=O)N[C@@H](CCCNC(=N)N)C(=O)N[C@H](C(=O)N[C@@H](CCC(=O)O)C(=O)N[C@H](C(=O)NCC(=O)N1CCC[C@H]1C(=O)N[C@@H](CCC(=O)O)C(=O)N[C@@H](CO)C(=O)N1CCC[C@H]1C(N)=O)[C@@H](C)O)[C@@H](C)O)[C@@H](C)O ({C18 diacid}-EASELSTAALGRLSAELAELATLPRTETGPESP-NH2)	18	70
≥ 200	≥ 200	≥ 200	≥ 200	≥ 200	≥ 200	0.006	0.014	≥ 200	0.383	≥ 200	CC(C)C[C@H](NC(=O)[C@H](CCC(=O)O)NC(=O)[C@H](Cc1cnc[nH]1)NC(=O)[C@H](CC(C)C)NC(=O)[C@H](CCC(=O)O)NC(=O)[C@H](C)NC(=O)[C@H](CO)NC(=O)[C@H](CC(C)C)NC(=O)[C@H](CCCNC(=N)N)NC(=O)CNC(=O)[C@H](CC(C)C)NC(=O)[C@@H](NC(=O)[C@H](C)NC(=O)[C@@H](NC(=O)[C@H](CO)NC(=O)[C@H](CC(C)C)NC(=O)[C@H](CCC(=O)O)NC(=O)[C@H](CO)NC(=O)[C@H](C)NC(=O)[C@H](CCC(=O)O)NC(=O)CCCCCCCCCCCCCCCCC(=O)O)[C@@H](C)O)C(C)C)C(=O)N[C@@H](C)C(=O)N[C@H](C(=O)N[C@@H](CC(C)C)C(=O)N1CCC[C@H]1C(=O)N1CCC[C@H]1C(=O)N[C@H](C(=O)N[C@@H](CCC(=O)O)C(=O)N[C@H](C(=O)NCC(=O)N1CCC[C@H]1C(=O)N[C@@H](CCC(=O)O)C(=O)N[C@@H](CO)C(=O)N1CCC[C@H]1C(N)=O)[C@@H](C)O)[C@@H](C)O)[C@@H](C)O ({C18 diacid}-EASELSTAVLGRLSAELHELATLPPTETGPESP-NH2)	12	62
≥ 200	≥ 200	≥ 200	≥ 200	≥ 200	≥ 200	0.009	0.012	≥ 200	0.796	≥ 200	CC(C)C[C@H](NC(=O)[C@H](CCC(=O)O)NC(=O)[C@H](Cc1cnc[nH]1)NC(=O)[C@H](CC(C)C)NC(=O)[C@H](CCC(=O)O)NC(=O)[C@H](C)NC(=O)[C@H](CO)NC(=O)[C@H](CC(C)C)NC(=O)[C@H](CCCNC(=N)N)NC(=O)CNC(=O)[C@H](CC(C)C)NC(=O)[C@@H](NC(=O)[C@H](C)NC(=O)[C@@H](NC(=O)[C@H](CO)NC(=O)[C@H](CC(C)C)NC(=O)[C@H](CCC(=O)O)NC(=O)[C@H](CO)NC(=O)[C@H](C)NC(=O)[C@H](CCC(=O)O)NC(=O)CCCCCCCCCCCCCCCCC(=O)O)[C@@H](C)O)C(C)C)C(=O)N[C@@H](C)C(=O)N[C@H](C(=O)N[C@@H](CC(C)C)C(=O)N1CCC[C@H]1C(=O)N[C@@H](CCCNC(=N)N)C(=O)N[C@H](C(=O)N[C@@H](CCC(=O)O)C(=O)N[C@H](C(=O)NCC(=O)N1CCC[C@H]1C(=O)N[C@@H](CCC(=O)O)C(=O)N[C@@H](CO)C(=O)N1CCC[C@H]1C(N)=O)[C@@H](C)O)[C@@H](C)O)[C@@H](C)O ({C18 diacid}-EASELSTAVLGRLSAELHELATLPRTETGPESP-NH2)	39	58.5
